Test results taken from patent US7927785B2, “Methods for in vitro expansion of hematopoietic stem cells” (The Board of Trustees of the University of Illinois, priority 2002, dated 2011).

What was measured:
[1] = tested on: adult human bone marrow CD34+ cells; assay: Cobblestone area-forming cell (CAFC) assay in limiting dilution; assay type: cell-based; conditions: for CAFC/10,000 Cells: after 9 days of culture, unfractionated, cobblestone areas counted after 5 weeks
Description: The ability of primitive HSC to form cobblestone areas (CA) in long term marrow cultures has been used as an in vitro surrogate progenitor HSC assay (Breems et al., Leukemia, 8:1095-1104, 1994, Lefkovits et al., Immunol. Today, 5:265-268, 1984; Cross et al., Curr. Opin. Genet. Dev., 5:609-613, 1997). CD34^+ cells after 9 days of culture from each condition were plated in limiting dilution in flat-bottomed 96-well plates (Costar) onto confluent, irradiated (7000cGy) monolayers of the murine stromal fibroblast line M2-10B4 (a gift from Dr. C. Eaves, Vancouver, BC, Canada). Each well contained 200 μL of a 50:50 mixture of IMDM and RPMI with 10% FBS. A cocktail of growth factors, including 100 ng/mL SCF, 100 ng/mL leukemia inhibitory factor (LIF), 50 ng/mL IL-3, 50 ng/mL IL-6 and 50 ng/mL granulocyte-monocyte colony stimulating factor (GM-CSF) (Amgen, Thousand Oaks, Calif.).
The cultures were fed weekly by replacement of one half of the culture volume with fresh medium containing the above cytokines at 2 times the previously defined concentration. After 5 weeks of culture in a humidified incubator at 37° C. containing 5% CO2, the number of CA were ennumerated. The CAFC frequency was computed by means of minimization of chi regression to the cell number at which 37% of wells were negative for CA formation, with 95% statistical precision using L-Calc (Limiting dilution calculation) software (Stem Cell Inc., Vancouver, Canada; Lefkovits et al., Curr. Opin. Genet. Dev. 5:609-613, 1997).

NOD/SCID mice = assay: Hematopoietic colonies cloned from NOD/SCID mouse marrow 7 weeks after human grafts; assay type: in vivo; conditions: for Estimated Number of Human Colonies: % human cells multiplied by total number of colonies; for % Human Cells: pooled colonies stained for human CD45/CD33, grafts 7 weeks earlier
Description: After 7 weeks of passage in vivo of human grafts in NOD/SCID mice, marrow cells from mice were then plated in methylcellulose assays at 100,000 cells/plate as previously described. After 14 days of incubation the number of hematopoietic colonies were enumerated.
Mice were given 300cGy of total body gamma irradiation and human grafts were injected via the tail vein. Cytokines including SCF, IL-3 and GM-CSF at 5 ug/mouse were injected intraperitoneally on alternate days following injection of human grafts during the first week of transplant. Sulfamethoxazole (40 mg/mL) and Trimethoprim (8 mg/mL)(SMX/TMZ; Elkins-Sinn, Cherry Hill, N.J.) were added in the drinking water for 3 days post injection and then subsequently for 3 days beginning the second week of transplant. Mice were sacrificed after 7 weeks. Femurs and tibias were flushed with Hank's balanced salt solution (HBSS) (Biowhittiker) with 2% FBS (Hyclone) and 0.02% sodium azide and cell counts performed. Cells were preincubated with 1 mg/ml of human gamma globulin in staining to block human Fc receptors. Murine Fc receptors were blocked by a second incubation of the cells in 2.4G2 (an anti-mouse Fc receptor moAb). Marrow cells were analyzed by flow cytometry to detect human cell engraftment as previously described.^29 Briefly to quantitate the total number of human cells present an aliquot of cells was stained with anti-CD45-FITC(BD) and anti-CD71-FITC(BD). This aliquot was also stained with anti-CD19-PE(BD) and cyanine-5-succinimidyl-labeled anti-CD34 (BD). After 7 weeks, marrow cells were plated in methylcellulose as previously described. Colonies from these CFC were then pooled and stained with moAb against CD33 and CD45 (BD) to assess the presence of human cells.

[2] = tested on: adult human bone marrow CD34+ cells; assay: Ex vivo expansion culture: cell counts and CD34+CD90+ cell numbers; assay type: cell-based; conditions: for Fold changes from the original cells: CD34+CD90+ cells; for Total counts ×10^5: start 1×10^5 CD34+ cells/well; for expansion of CD34+CD90+ cells / Absolute CD34+ Number (×10^4) / Absolute CD34+CD90+ Numbers (×10^4) / Total Mononuclear Cell Number (×10^4): 9 days with cytokines; for Absolute CD34+ Number (×10^4) / Absolute CD34+CD90+ Numbers (×10^4) / Total Mononuclear Cell Number (×10^4) / Fold Expansion of CD34+CD90+: mean of 3 ± SEM; for Fold Expansion of CD34+CD90+: compared to the primary cell numbers
Description: To promote cell division of isolated CD34^+ cells, a stroma-free suspension culture was established as previously described (Bazil et al., 1995). Tissue culture dishes (35 mm; Costar, Corning, N.Y.) were seeded with 1×10^5 CD34^+cells/well in 2.5 mL Iscove modified Dulbecco medium (IMDM) (Biowhittaker, Walkersville, Md.) containing 30% FBS and a cocktail of cytokines specifically thought to promote exit from G0/G1 in primitive HSC populations which consisted of 100 ng/mL recombinant stem cell factor (SCF), 100 ng/mL FLT-3 ligand, 100 ng/mL thrombopoetin (TPO) and 50 ng/mL of interleukin (IL)-3, (all from Amgen Inc., Thousand Oaks, Calif.).
Cells were maintained in the media and incubated at 37° C. in a 100%-humidified atmosphere containing 5% CO2 for 48 hours. After intial 16 hours of incubation cells were exposed to the demethylating agent, 5-aza2′deoxycitidine (5azaD) (Sigma Chemicals, St. Louis, Mo.) at a concentration of 10^−6M. After 48 hours, cells were washed by centrifugation and then equally distributed to new tissue culture dishes in 2.5 mL IMDM supplemented with 30% FBS containing cytokines known to promote terminal differentiation of HSC into multiple hematopoietic lineages. The cocktail of cytokines contained 100 ng/mL of SCF, 50 ng/ml of granulocyte colony-stimulating factor (G-CSF), 50 ng/mL of IL-3, 50 ng/ml of IL-6 and 5 units (U)/mL of recombinant erythropoietin (EPO) (Amgen Inc., Thousand Oaks, Calif.). Cells at this time point were exposed to Trichostatin (TSA) (Sigma Chemical., St. Louis, Mo.) at 5 ng/mL and the culture was continued for an additional 7 days. At the end of the culture period cells were counted for viability by the trypan blue exclusion method using an inverted microscope. 5-fluorouracil (5-FU) (Sigma Chemical., St. Louis, Mo.) was used at a concentration of 200 μg/ml and added at the 16 hour time point instead of 5azaD and the cultures carried on as described above with no addition of TSA.
The phenotypic characteristics of the CD34^+ cells were analyzed using FACS. After 9 days of culture, expanded marrow CD34^+ cells were analyzed for primitive HSC phenotype, previously defined, by using flow activated-cell sorter (FACS) (Becton Dickinson (BD) FACS Calibur, San Jose, Calif.). Cells were stained with anti-human CD34^+ moAb conjugated either to fluorescein isothiocyanate (FITC) or phycoerythrin (PE) and another moAb including anti-CD38, anti-CD117, anti-CD90. To determine the lineage positive cells a panel of moab all conjugated to FITC (anti-CD2, anti-CD14, anti-CD15, anti-CD19 and anti-GlyA) (all antibodies were purchased from BD) were utilized. All anaylsis were paired with the corresponding matched isotype control of the specific moAb utilized. All staining and washes were performed in DPBS (Biowhittaker, Walkersville Md.) and 0.5% BSA (Sigma, Chemicals Co., St. Louis, Mo.). Immediately prior to FACS anaylsis, […] propidium iodide (PI) (Sigma, Chemicals Co., St. Louis, Mo.) was added for the exclusion of nonviable cells for phenotypic analysis. Using Cell-Quest software (BD), at least 10,000 live cells were acquired for each analysis.

[3] = 9 days of culture, single agent

| SMILES | fold increase in the number of CAFC over the primary cells ([1]; 9 days with cytokines) | CAFC/10,000 Cells [1] | Estimated Number of Human Colonies (NOD/SCID mice) | secondary hematopoietic colonies from marrow of grafted mice (NOD/SCID mice; plated in semisolid media with human cytokines) | % Human Cells (NOD/SCID mice) | % CD34+ of all cells [2, 3] | % CD34+ thy-1+ cells [2, 3] | Absolute CD34+ thy-1+ cells ×10^5 [2, 3] | Absolute CD34 counts ×10^5 [2, 3] | Fold changes from the original cells [2, 3] | Total counts ×10^5 [2, 3] | expansion of CD34+CD90+ cells [2] | Absolute CD34+ Number (×10^4) [2] | Absolute CD34+CD90+ Numbers (×10^4) [2] | Total Mononuclear Cell Number (×10^4) [2] | Fold Expansion of CD34+CD90+ [2] | numbers of CAFC relative to cytokines alone ([1]; 9 days with cytokines) |
| --- | --- | --- | --- | --- | --- | --- | --- | --- | --- | --- | --- | --- | --- | --- | --- | --- | --- |
| Nc1ncn([C@H]2C[C@H](O)[C@@H](CO)O2)c(=O)n1 [5azaD, 5-aza2′deoxycitidine] | 1.9 fold | 96 CAFC/10,000 cells | 9 | formed significant numbers of secondary hematopoietic colonies | 12% | 26% | 6% | 0.15 ×10^5 | 0.65 ×10^5 | 0.7 fold | 2.5 ×10^5 | more limited expansion | 10.0 ± 4.0 ×10^4 | 4.0 ± 1.7 ×10^4 | 32.0 ± 5.0 ×10^4 | 1.7 ± 0.8 fold | – |
| CC(/C=C/C(=O)NO)=C\[C@@H](C)C(=O)c1ccc(N(C)C)cc1 [TSA, Trichostatin A] | – | 16 CAFC/10,000 cells | 0 | – | 0% | 3.9% | – | 0.31 ×10^5 | 1.7 ×10^5 | 1.4 fold | 46 ×10^5 | more limited expansion | 19.0 ± 1.0 ×10^4 | 4.0 ± 1.0 ×10^4 | 470.0 ± 87.0 ×10^4 | 1.8 ± 0.4 fold | comparable numbers of CAFC as cultures receiving cytokines alone |
